Patent US20100200049A1, “BIOHYBRID SYSTEM FOR HYDROGEN PRODUCTION” (Alliance for Sustainable Energy, LLC, priority 2008, published 2010)

Tests used:
PS II [1] = molecular target: T1, PS II (Thermosynechococcus vestitus, UniProt P0A444); assay: Photocurrent of GC-PS II electrode wired to hydrogenase electrode, with DCMU added; format: biochemical, Thermosynechococcus elongatus; conditions: 5 μM and 10 μM DCMU in working solution; red light 660 nm, 10 s light/40 s dark; all oxidizing potentials tested (+0.2 to +1.0 V)
T1 construct: PS II complexes were isolated from Thermosynechococcus elongatus; from tissue; host or cells: Thermosynechococcus elongatus cells (photosynthetic membranes); method of Schatz and Witt 1984 with modifications
Experimental: (§1) PS II complexes were isolated from Thermosynechococcus elongatus according to methods described by Schatz and Witt (1984, Extraction and characterisation of oxygen-evolving Photosystem II complexes from a thermophilic cyanobacterium Synechococcus sp. Photobiochem. Photobiophys. 7: 1-14) with modifications.
(§2) The PS II electrode was prepared by depositing 5 μl of 1 mM isolated PS II complex preparation onto the electrode in almost complete darkness, with a weak non-actinic green light present, and dried overnight at +4° C. in darkness. A pyrolytic graphite edge (PGE) electrode with a diameter of 4.8 mm or a glassy carbon (GC) electrode with a diameter of 3 mm was used. Directly before the experiment, the surface of the electrode containing dried PS II sample was covered with a dialysis membrane (12000-14000 MW cutoff) that was held in place by o-ring.
The photocurrent was generated by illumination of the PS II electrode by red LED (660 nm) or white LED. The following light/dark cycle was used: 10 s light, 40 s dark, unless specified otherwise.
The experiments in which the PS II electrode was tested by addition of DCMU were performed using the GC-PS II electrode, wired to a 4.8 mm diameter PGE-hydrogenase electrode. […]

PS II [2] = molecular target: T1, PS II; assay: Photocurrent of PGE-PS II electrode with soluble electron mediator; format: biochemical, Thermosynechococcus elongatus; conditions: DMBQ 60 μM vs no mediator; +0.4 V vs Ag/AgCl; red light 660 nm, 10 s light/40 s dark
Experimental: as §1, §2
A 50 mM stock solution of DMBQ in ethanol was prepared fresh before the experiment and used as an electron mediator for PS II in various concentrations. […]

Structure (SMILES) | effect on generation of photocurrent by the PS II electrode (PS II [1]) | effect on amplitude of photocurrent generated by the PS II electrode (PS II [2])
CN(C)C(=O)Nc1ccc(Cl)c(Cl)c1 [DCMU] | inhibited the generation of photocurrent | –
CC1=CC(=O)C=C(C)C1=O [DMBQ, 2,6-dimethyl 1,4-benzoquinone] | – | dramatically improved the amplitude of photocurrent
